Calls of active or inactive are those of the source. No cut-off for these calls is given here.
What was measured:
HT-22 [1] = assay: Neuroprotective activity against glutamate-induced cell death in mouse HT22 cells assessed as increase in cell viability at 1.6 uM pretreated for 2 hrs followed by glutamate-challenge and measured after 20 hrs by MTT assay (reference value: 23 +/- 3.57%); format: functional, cell-based
HT-22 [2] = assay: Neuroprotective activity against glutamate-induced cell death in mouse HT22 cells assessed as cell viability at 12.5 uM pretreated for 2 hrs followed by glutamate-challenge and measured after 20 hrs by MTT assay (reference value: 23 +/- 3.57%); format: functional; conditions: for viability at 12.5 µM: read-out: Activity
HT-22 [3] = assay: Cytotoxicity against mouse HT22 cells assessed as effect on cell viability at >25 uM after 2 hrs by MTT assay; format: cell-based; conditions: ht-22, 2 h

## COc1cc(C[C@@H](COC(=O)/C=C\c2ccc(O)cc2)[C@H](COC(=O)/C=C\c2ccc(O)cc2)Cc2ccc(O)c(OC)c2)ccc1O
HT-22 [1]
  Activity: Active
HT-22 [2]
  viability at 12.5 µM: 74%
HT-22 [3]
  Activity: Toxic

## COc1cc(C[C@@H](COC(=O)/C=C\c2ccc(O)cc2)[C@H](COC(=O)/C=C/c2ccc(O)cc2)Cc2ccc(O)c(OC)c2)ccc1O
HT-22 [1]
  Activity: Active
HT-22 [2]
  viability at 12.5 µM: 73%
HT-22 [3]
  Activity: Toxic

## COc1cc([C@@H](O)[C@H](COC(=O)/C=C\c2ccc(O)cc2)Oc2ccc(/C=C/COC(=O)/C=C/c3ccc(O)cc3)cc2OC)ccc1O
HT-22 [1]
  Activity: Active
HT-22 [2]
  Activity: Active
HT-22 [3]
  Activity: Toxic

## COc1cc([C@@H](O)[C@H](COC(=O)/C=C/c2ccc(O)cc2)Oc2ccc(/C=C/COC(=O)/C=C\c3ccc(O)cc3)cc2OC)ccc1O
HT-22 [1]
  Activity: Active
HT-22 [2]
  Activity: Active
HT-22 [3]
  Activity: Toxic

## COc1cc([C@@H](O)[C@H](COC(=O)/C=C/c2ccc(O)cc2)Oc2ccc(/C=C/COC(=O)/C=C/c3ccc(O)cc3)cc2OC)ccc1O
HT-22 [1]
  Activity: Active
HT-22 [2]
  Activity: Active
HT-22 [3]
  Activity: Toxic

## COc1cc([C@H](O)[C@H](COC(=O)/C=C/c2ccc(O)cc2)Oc2ccc(/C=C/COC(=O)/C=C/c3ccc(O)cc3)cc2OC)ccc1O
HT-22 [1]
  Activity: Active
HT-22 [2]
  Activity: Active
HT-22 [3]
  Activity: Toxic

## COc1cc([C@H](O)[C@H](COC(=O)/C=C/c2ccc(O)cc2)Oc2ccc(/C=C/COC(=O)/C=C\c3ccc(O)cc3)cc2OC)ccc1O
HT-22 [1]
  Activity: Active
HT-22 [2]
  Activity: Active
HT-22 [3]
  Activity: Toxic

## COc1cc(C[C@@H](COC(=O)/C=C/c2ccc(O)cc2)[C@H](COC(=O)/C=C/c2ccc(O)cc2)Cc2ccc(O)c(OC)c2)ccc1O
HT-22 [1]
  Activity: Active
HT-22 [2]
  viability at 12.5 µM: 63%
HT-22 [3]
  Activity: Toxic

## COc1cc([C@H](O)[C@H](COC(=O)/C=C\c2ccc(O)cc2)Oc2ccc(/C=C/COC(=O)/C=C/c3ccc(O)cc3)cc2OC)ccc1O
HT-22 [1]
  Activity: Active
HT-22 [2]
  Activity: Active
HT-22 [3]
  Activity: Toxic

## Cc1c(C)c2c(c(C)c1O)CCC(C)(C(=O)O)O2 (stereo not drawn) [TROLOX]
HT-22 [2]
  viability at 12.5 µM: 52%

— ChEMBL document CHEMBL4196146, “Targeted Isolation of Neuroprotective Dicoumaroyl Neolignans and Lignans from Sageretia theezans Using in Silico Molecular Network Annotation Propagation-Based Dereplication” (J Nat Prod, 2018)
